Among the data in patent US20240199558A1, “2,4,6-TRISUBSTITUTED 1,3,5-TRIAZINES AS MODULATORS OF CX3CR1” (ASTRAZENECA AB, priority 2022, published 2024) are IC50 values, retold here.

The structures appear in SMILES notation.

This assay deals with CX3CR1 (Homo sapiens (Human), UniProt P49238). As to the kind of experiment: hCX3CR1 [3H]-AZD8797 competitive binding assay (filter). Particulars: CHO-hCX3CR1 membranes, 2 nM [3H]-AZD8797. How it is done: hCX3CR1 [^3H]-AZD8797 Competitive Binding Assay (Filter)
CHO-hCX3CR1 membranes (9 μg per well) together with 2 nM [^3H]-AZD8797 and different concentrations of competitor compound were incubated in 25 mM HEPES (pH 7.4), 10 mM MgCl2, 1 mM CaCl2) and 0.5% BSA in a Corning polystyrene flat-bottom 96-well plate. The plate was incubated for 2 h at room temperature before free radioligand was separated from bound by vacuum filtration on to a Multiscreen HTS+HiFlow FB (Millipore) filter plate, using a Biomek FX (Beckman Coulter). The filter plate was washed in ice-cold 25 mM HEPES (pH 7.4), 5 mM MgCl2, 1 mM CaCl2) and 500 mM NaCl and dried at 50° C. for 1 h. Scintillation cocktail, Optiphase Supermix (PerkinElmer) was added to each well and the radioactivity was measured using a MicroBeta Trilux reader (PerkinElmer). The DMSO concentration was held constant at 1%.

Chain of CX3CR1 (P49238 whole entry): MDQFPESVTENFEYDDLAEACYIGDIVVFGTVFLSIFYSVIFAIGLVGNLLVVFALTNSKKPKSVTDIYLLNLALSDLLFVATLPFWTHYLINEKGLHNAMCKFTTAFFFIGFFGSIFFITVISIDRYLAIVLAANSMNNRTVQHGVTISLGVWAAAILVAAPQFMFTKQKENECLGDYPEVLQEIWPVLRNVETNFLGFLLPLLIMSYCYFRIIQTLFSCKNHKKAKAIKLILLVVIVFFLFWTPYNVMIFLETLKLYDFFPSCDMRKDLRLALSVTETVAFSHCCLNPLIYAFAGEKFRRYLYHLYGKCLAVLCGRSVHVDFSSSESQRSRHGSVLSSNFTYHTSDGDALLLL

In turn, `CC(C)C[C@H](CO)Nc1nc(C[C@H](C)c2c(F)cc(Cl)cc2F)nc(NS(C)(=O)=O)n1` (single isomer, unassigned) [Example 43, N-(4-((S*)-2-(4-Chloro-2,6-difluorophenyl)propyl)-6-(((R)-1-hydroxy-4-methylpentan-2-yl)amino)-1,3,5-triazin-2-yl)methanesulfonamide] displayed an IC50 of 9.11 µM.
Turning to `CC(C)C[C@H](CO)Nc1nc(C[C@@H](C)c2c(F)cc(Cl)cc2F)nc(NS(C)(=O)=O)n1` (single isomer, unassigned) [Example 44, N-(4-((R*)-2-(4-Chloro-2,6-difluorophenyl)propyl)-6-(((R)-1-hydroxy-4-methylpentan-2-yl)amino)-1,3,5-triazin-2-yl)methanesulfonamide], the IC50 was determined as 0.173 µM.
As for `COc1cc(F)c([C@@H](C)Cc2nc(N[C@@H](CO)CC(C)C)nc(NS(C)(=O)=O)n2)cn1` (single isomer, unassigned) [Example 45, N-(4-((S*)-2-(4-Fluoro-6-methoxypyridin-3-yl)propyl)-6-(((R)-1-hydroxy-4-methylpentan-2-yl)amino)-1,3,5-triazin-2-yl)methanesulfonamide], the IC50 is 0.765 µM.
Molecule `CC[C@H](Cc1nc(N[C@@H](CO)CC(C)C)nc(NS(C)(=O)=O)n1)c1cccc(F)c1F` (single isomer, unassigned) [Example 47, N-(4-((R*)-2-(2,3-Difluorophenyl)butyl)-6-(((R)-1-hydroxy-4-methylpentan-2-yl)amino)-1,3,5-triazin-2-yl)methanesulfonamide] returned an IC50 of 0.063 µM.
Consider `CC[C@@H](Cc1nc(N[C@@H](CO)CC(C)C)nc(NS(C)(=O)=O)n1)c1cccc(F)c1F` (single isomer, unassigned) [Example 48, N-(4-((S*)-2-(2,3-Difluorophenyl)butyl)-6-(((R)-1-hydroxy-4-methylpentan-2-yl)amino)-1,3,5-triazin-2-yl)methanesulfonamide], for which the IC50 is 0.309 µM.
In turn, `CC(C)C[C@H](CO)Nc1nc(C[C@H](C)c2ccc(N)nc2)nc(NS(C)(=O)=O)n1` (single isomer, unassigned) [Example 50, N-(4-((S*)-2-(6-Aminopyridin-3-yl)propyl)-6-(((R)-1-hydroxy-4-methylpentan-2-yl)amino)-1,3,5-triazin-2-yl)methanesulfonamide] registered an IC50 of 0.342 µM.
The figure for `CC(C)C[C@H](CO)Nc1nc(C[C@@H](C)c2ccc(N)nc2)nc(NS(C)(=O)=O)n1` (single isomer, unassigned) [Example 51, N-(4-((R*)-2-(6-Aminopyridin-3-yl)propyl)-6-(((R)-1-hydroxy-4-methylpentan-2-yl)amino)-1,3,5-triazin-2-yl)methanesulfonamide] is 0.03 µM.
As to `CC(C)C[C@H](CO)Nc1nc(C[C@H](C)c2ccc(F)c(Cl)c2)nc(NS(C)(=O)=O)n1` (single isomer, unassigned) [Example 65, N-(4-((S*)-2-(3-Chloro-4-fluorophenyl)propyl)-6-(((R)-1-hydroxy-4-methylpentan-2-yl)amino)-1,3,5-triazin-2-yl)methanesulfonamide], the IC50 came out at 4.2 µM.
Turning to `CC(C)C[C@H](CO)Nc1nc(C[C@@H](C)c2ccc(F)c(Cl)c2)nc(NS(C)(=O)=O)n1` (single isomer, unassigned) [Example 66, N-(4-((R*)-2-(3-Chloro-4-fluorophenyl)propyl)-6-(((R)-1-hydroxy-4-methylpentan-2-yl)amino)-1,3,5-triazin-2-yl)methanesulfonamide], the IC50 turned out to be 0.222 µM. Compared with the last molecule, the IC50 is about 19-fold lower.
`CC(C)C[C@H](CO)Nc1nc(C[C@H](C)c2c(F)cccc2F)nc(NS(C)(=O)=O)n1` (single isomer, unassigned) [Example 77, N-(4-((S*)-2-(2,6-Difluorophenyl)propyl)-6-(((R)-1-hydroxy-4-methylpentan-2-yl)amino)-1,3,5-triazin-2-yl)methanesulfonamide] returned a concentration for half-maximal inhibition (IC50) of 3.25 µM.
On to `CC(C)C[C@H](CO)Nc1nc(C[C@@H](C)c2c(F)cccc2F)nc(NS(C)(=O)=O)n1` (single isomer, unassigned) [Example 78, N-(4-((R*)-2-(2,6-Difluorophenyl)propyl)-6-(((R)-1-hydroxy-4-methylpentan-2-yl)amino)-1,3,5-triazin-2-yl)methanesulfonamide], for which the IC50 stood at 0.022 µM.
Consider `COc1ccc([C@@H](C)Cc2nc(N[C@@H](CO)CC(C)C)nc(NS(C)(=O)=O)n2)c(F)n1` (single isomer, unassigned) [Example 86, N-(4-((S*)-2-(2-Fluoro-6-methoxypyridin-3-yl)propyl)-6-(((R)-1-hydroxy-4-methylpentan-2-yl)amino)-1,3,5-triazin-2-yl)methanesulfonamide], for which the IC50 amounted to 0.073 µM.
Next, `CC(C)C[C@H](CO)Nc1nc(C[C@H](C)c2ccnc(F)c2)nc(NS(C)(=O)=O)n1` (single isomer, unassigned) [Example 90, N-(4-((S*)-2-(2-Fluoropyridin-4-yl)propyl)-6-(((R)-1-hydroxy-4-methylpentan-2-yl)amino)-1,3,5-triazin-2-yl)methanesulfonamide]: 1.7 µM.
The figure for `CC(C)C[C@H](CO)Nc1nc(C[C@@H](C)c2ccnc(F)c2)nc(NS(C)(=O)=O)n1` (single isomer, unassigned) [Example 91, N-(4-((R*)-2-(2-Fluoropyridin-4-yl)propyl)-6-(((R)-1-hydroxy-4-methylpentan-2-yl)amino)-1,3,5-triazin-2-yl)methanesulfonamide] is 0.034 µM.
The molecule `CC(C)C[C@H](CO)Nc1nc(CC(C)c2ccc(C#N)cc2)nc(NS(C)(=O)=O)n1` (single isomer, unassigned) [Example 164, N-(4-((S*)-2-(4-Cyanophenyl)propyl)-6-(((R)-1-hydroxy-4-methylpentan-2-yl)amino)-1,3,5-triazin-2-yl)methanesulfonamide] had an IC50 of 1.5 µM.
For the molecule `CC(C)C[C@H](CO)Nc1nc(CC(C)c2ccc(C#N)cc2)nc(NS(C)(=O)=O)n1` (single isomer, unassigned) [Example 165, N-(4-((R*)-2-(4-Cyanophenyl)propyl)-6-(((R)-1-hydroxy-4-methylpentan-2-yl)amino)-1,3,5-triazin-2-yl)methanesulfonamide], the concentration for half-maximal inhibition (IC50) is 0.283 µM.
The molecule `CC(C)C[C@H](CO)Nc1nc(C[C@H](C)c2ccc(Cl)cc2)nc(NS(C)(=O)=O)n1` (single isomer, unassigned) [Example 171, N-(4-((R*)-2-(4-Chlorophenyl)propyl)-6-(((R)-1-hydroxy-4-methylpentan-2-yl)amino)-1,3,5-triazin-2-yl)methanesulfonamide] returned an IC50 of 0.771 µM.
On to `CCC(Cc1nc(N[C@@H](CO)CC(C)C)nc(NS(C)(=O)=O)n1)c1cnc(OC)cc1F` (stereo partly drawn) [Example 49, N-(4-(2-(4-Fluoro-6-methoxypyridin-3-yl)butyl)-6-(((R)-1-hydroxy-4-methylpentan-2-yl)amino)-1,3,5-triazin-2-yl)methanesulfonamide], for which the IC50 came out at 0.474 µM.
On to `CC(C)C[C@H](CO)Nc1nc(CC(C)c2ccc(N3CCNCC3)cc2)nc(NS(C)(=O)=O)n1` (stereo partly drawn) [Example 54, N-(4-(((R)-1-Hydroxy-4-methylpentan-2-yl)amino)-6-(2-(4-(piperazin-1-yl)phenyl)propyl)-1,3,5-triazin-2-yl)methanesulfonamide], for which the IC50 stood at 0.153 µM. Compared with the last molecule, the IC50 is about 3.1-fold lower.
